Measurements published in patent US20070020329A1, “Methods of formulating linezolid” (priority 2005, published 2007).

Experiment: Polymorphic stability of solid linezolid Form IV, alone and in contact with solvents
Type: physicochemical
Text: As a consequence, pharmaceutical compositions comprising linezolid Form IV substantially free of linezolid Form II are difficult to prepare.

CC(=O)NC[C@H]1CN(c2ccc(N3CCOCC3)c(F)c2)C(=O)O1 [linezolid Form IV, N-[[(5S)-3-[3-fluoro-4-(4-morpholinyl)phenyl]-2-oxo-5-oxazolidinyl]methyl]acetamide]
conversion of Form IV to Form II (in words) (contacted with solvents, in particular ethanol): readily transforms to linezolid Form II | conversion of solid Form IV to Form II (in words) (solid, at least 3 months at temperatures between 25 and 40° C.): does not convert to linezolid Form II
